Consider one substance from patent US4469681A, “Method and system for the controlled release of biologically active substances to a body fluid” (The Rockefeller University, priority 1981, dated 1984).

In one experiment the test system is blood glucose. Kind of experiment: Blood-glucose depression assay modified from the U.S. Pharmacopeia. The following applies: 60 minutes after injection; for Blood glucose depression: 0.1 mg protein/100 gm body weight subcutaneous after overnight fast. The format is in vivo. An excerpt: weight by subcutaneous injection.
injection using a Beckman Glucose Analyzer 2.

A further experiment addresses Concanavalin A (Canavalia ensiformis, UniProt P02866). As to the kind of experiment: Binding to and glucose displacement from immobilized Concanavalin A columns. More on the design: species or system Jack Bean. The protocol:
At the point indicated by the arrow, 0.2M glucose in the column buffer was begun. Fractions (2.0 ml) were collected at a flow rate of 10-15 ml/h.
Displacement of hormone was accomplished using 1.0 ml pulses of column buffer containing varying amounts of glucose. Glucose content is indicated over the appropriate arrows. Fractions (1.7 ml) were collected at a flow rate of 10-15 ml/h.

For “Control insulin: porcine insulin (Lilly), unmodified”, the Blood glucose depression is 75 mg % in the experiment on blood glucose (Animal A); 70 mg % with blood glucose (Animal B); 79 mg % with blood glucose (Animal C); 79 mg % in the experiment with blood glucose (Animal D); 64 mg % with blood glucose (Animal E); 73 mg % with blood glucose (Animal F). Besides, in the experiment with blood glucose (Mean of animals A-F, 0.1 mg protein/100 gm body weight subcutaneous), the “Blood glucose depression, Mean ± S.E.M.” value is recorded as 73.33 ± 2.35 mg %. The “Binding to immobilized Concanavalin A” value with Concanavalin A (20 mg applied to column, buffer 1 mM MgCl2, 1 mM CaCl2, 50 mM NaCl, 25 mM sodium phosphate, pH 7.4) is listed as “did not bind”. Moreover, in the experiment with Concanavalin A (0.2M glucose in column buffer, 1,000:1 molar excess of glucose), the “Displacement from Concanavalin A binding sites by glucose” value is “none was eluted by the addition of glucose”.
